This is an account of results in EP2508526A1, “Spiroalkene carboxamide derivatives and their use as chemokine receptor modulators” (Ares Trading SA, priority 2011, dated 2012).

A value given as a limit tells only on which side of the number the result lay.

This test has as its target T1, hCCR2b (Homo sapiens, UniProt P41597).
T1 sequence (P41597 1-360 isoform P41597-2): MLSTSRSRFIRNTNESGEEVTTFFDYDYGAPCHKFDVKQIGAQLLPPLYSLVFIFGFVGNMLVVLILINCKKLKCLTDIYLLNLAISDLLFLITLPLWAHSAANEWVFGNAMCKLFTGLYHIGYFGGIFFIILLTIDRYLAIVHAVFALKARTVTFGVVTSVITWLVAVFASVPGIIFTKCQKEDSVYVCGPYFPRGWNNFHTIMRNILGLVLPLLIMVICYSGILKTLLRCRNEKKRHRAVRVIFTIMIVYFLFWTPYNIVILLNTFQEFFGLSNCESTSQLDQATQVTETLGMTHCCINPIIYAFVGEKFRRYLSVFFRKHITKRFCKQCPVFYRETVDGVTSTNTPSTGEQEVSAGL
Put plainly: CCR2 binding assay ([125I]MCP-1, SPA, CHO cell membranes). The arrangement: expressed in transfected cells; host or cells: CHO cells (membrane preparation). To be noted: membranes from CHO cells expressing hCCR2b, 50 pM [125I]MCP-1; read-out: Binding hCCR2 (Ki). The essentials: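 CHO membranes expressing hCCR2b (1–5 µg/well) with 50 pM [125I]MCP-1 and WGA SPA beads in 50 mM HEPES pH 7.4, 5 mM MgCl2, 1 mM CaCl2, 0.1% BSA, 1% DMSO; 90 min RT with agitation. Bound counts on scintillation counter; nonspecific defined by 1000-fold excess unlabeled compound.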

A word on the Ki: it is the equilibrium dissociation constant of an inhibitor or competing ligand from its target. For the compound `CCN1CCC2(CC1)OC(=O)C(C)=C2C(=O)N1CCN(c2cccc(F)c2)CC1` [Compound 80, 8-ethyl-4-{[4-(3-fluorophenyl)piperazin-1-yl]carbonyl}-3-methyl-1-oxa-8-azaspiro[4.5]dec-3-en-2-one], the inhibitory constant (Ki) was 500 to 2000 nM.

For `CCN1CCC2(CC1)OC(=O)C(C)=C2C(=O)N1CCN(c2cccc(OC(F)(F)F)c2)CC1` [Compound 81, 8-ethyl-3-methyl-4-({4-[3-(trifluoromethoxy)phenyl]piperazin-1-yl}carbonyl)-1-oxa-8-azaspiro[4.5]dec-3-en-2-one], the Ki is < 50 nM.

As to `CCN1CCC2(CC1)OC(=O)C(C)=C2C(=O)N1CCN(c2ccc(Cl)c(C(F)(F)F)c2)CC1` [Compound 82, 4-({4-[4-chloro-3-(trifluoromethyl)phenyl]piperazin-1-yl}carbonyl)-8-ethyl-3-methyl-1-oxa-8-azaspiro[4.5]dec-3-en-2-one], the Ki was < 50 nM.

Turning to `CCN1CCC2(CC1)OC(=O)C(C)=C2C(=O)N1CCC(Nc2ccc(C(F)(F)F)cc2)C1` (stereo not shown) [Compound 83, 8-ethyl-3-methyl-4-[(3-{[4-(trifluoromethyl)phenyl]amino}pyrrolidin-1-yl)carbonyl]-1-oxa-8-azaspiro[4.5]dec-3-en-2-one], the Ki was < 50 nM.

As for `CCN1CCC2(CC1)OC(=O)C(C)=C2C(=O)N1CCN(c2cccc(C(F)(F)F)c2)CC1C` (stereo not shown) [Compound 84, 8-ethyl-3-methyl-4-({2-methyl-4-[3-(trifluoromethyl)phenyl]piperazin-1-yl}carbonyl)-1-oxa-8-azaspiro[4.5]dec-3-en-2-one], the Ki is < 50 nM.

In the case of `CCN1CCC2(CC1)OC(=O)C(C)=C2C(=O)N1CCc2ncc(C(F)(F)F)cc2C1` [Compound 85, 8-ethyl-3-methyl-4-{[3-(trifluoromethyl)-7,8-dihydro-1,6-naphthyridin-6(5H)-yl]carbonyl}-1-oxa-8-azaspiro[4.5]dec-3-en-2-one], the Ki is < 50 nM.

Regarding `CCN1CCC2(CC1)OC(=O)C(C)=C2C(=O)N1CCN(c2cc(Cl)cc(C(F)(F)F)c2)CC1` [Compound 86, 4-({4-[3-chloro-5-(trifluoromethyl)phenyl]piperazin-1-yl}carbonyl)-8-ethyl-3-methyl-1-oxa-8-azaspiro[4.5]dec-3-en-2-one], the Ki was < 50 nM.

Turning to `CCN1CCC2(CC1)OC(=O)C(C)=C2C(=O)N1CCN(c2cc(OC)cc(C(F)(F)F)c2)CC1` [Compound 87, 8-ethyl-4-({4-[3-methoxy-5-(trifluoromethyl)phenyl]piperazin-1-yl}carbonyl)-3-methyl-1-oxa-8-azaspiro[4.5]dec-3-en-2-one], the Ki is < 50 nM.

Consider `CCN1CCC2(CC1)OC(=O)C(C)=C2C(=O)N1CCN(c2cc(C(F)(F)F)cc(C(F)(F)F)c2)CC1` [Compound 88, 4-({4-[3,5-bis(trifluoromethyl)phenyl]piperazin-1-yl}carbonyl)-8-ethyl-3-methyl-1-oxa-8-azaspiro[4.5]dec-3-en-2-one], for which the inhibition constant (Ki) is < 50 nM.

For the compound `CCN1CCC2(CC1)OC(=O)C(C)=C2C(=O)NCc1cccc(C(F)(F)F)c1` [Compound 89, 8-ethyl-3-methyl-2-oxo-N-[3-(trifluoromethyl)benzyl]-1-oxa-8-azaspiror[4.5]dec-3-ene-4-carboxamide], the Ki lay within 50 to 100 nM.

`CCN1CCC2(CC1)OC(=O)C(C)=C2C(=O)N1CCCN(c2cccc(C(F)(F)F)c2)CC1` [Compound 90, 8-ethyl-3-methyl-4-({4-[3-(trifluoromethyl)phenyl]-1,4-diazepan-1-yl}carbonyl)-1-oxa-8-azaspiro[4.5]dec-3-en-2-one]: the Ki lay within 50 to 100 nM.

With `CCN1CCC2(CC1)OC(=O)C(C)=C2C(=O)N1CCCN(c2ccc(C(F)(F)F)cc2)CC1` [Compound 91, 8-ethyl-3-methyl-4-({4-[4-(trifluoromethyl)phenyl]-1,4-diazepan-1-yl}carbonyl)-1-oxa-8-azaspiro[4.5]dec-3-en-2-one], the Ki lay in the range of 100 to 500 nM.

In the case of `CCN1CCC2(CC1)OC(=O)C(C)=C2C(=O)NCCCc1cccc(C(F)(F)F)c1` [Compound 92, 8-ethyl-3-methyl-2-oxo-N-{3-[3-(trifluoromethyl)phenyl]propyl}-1-oxa-8-azaspiro[4.5]dec-3-ene-4-carboxamide], the Ki was in the range of 100 to 500 nM.

Regarding `CCN1CCC2(CC1)OC(=O)C(C)=C2C(=O)N1CCN(c2ccc(OC(F)(F)F)cc2)CC1` [Compound 93, 8-ethyl-3-methyl-4-({4-[4-(trifluoromethoxy)phenyl]piperazin-1-yl}carbonyl)-1-oxa-8-azaspiro[4.5]1dec-3-en-2-one], the Ki was in the range of 100 to 500 nM.

With `CCN1CCC2(CC1)OC(=O)C(C)=C2C(=O)N1CCC(c2cccc(C(F)(F)F)c2)CC1` [Compound 94, 8-ethyl-3-methyl-4-({4-[3-(trifluoromethyl)phenyl]piperidin-1-yl}carbonyl)-1-oxa-8-azaspiro[4.5]dec-3-en-2-one], the Ki fell in the range of 100 to 500 nM.

For `CCN1CCC2(CC1)OC(=O)C(C)=C2C(=O)N1CCN(c2cc(C(F)(F)F)ccc2OC)CC1` [Compound 95, 8-ethyl-4-({4-[2-methoxy-5-(trifluoromethyl)phenyl]piperazin-1-yl}carbonyl)-3-methyl-1-oxa-8-azaspiro[4.5]dec-3-en-2-one], the Ki fell in the range of 500 to 2000 nM.

On to `CCN1CCC2(CC1)OC(=O)C(C)=C2C(=O)N1CCN(c2cc(C(F)(F)F)ccc2C)CC1` [Compound 96, 8-ethyl-3-methyl-4-({4-[2-methyl-5-(trifluoromethyl)phenyl]piperazin-1-yl}carbonyl)-1-oxa-8-azaspiro[4.5]dec-3-en-2-one], for which the Ki is 500 to 2000 nM.

As for `CCN1CCC2(CC1)OC(=O)C(C)=C2C(=O)Nc1ccc(-c2cccc(C(F)(F)F)c2)cc1` [Compound 98, 8-ethyl-3-methyl-2-oxo-N-[3'-(trifluoromethyl)biphenyl-4-yl]-1-oxa-8-azaspiro[4.5]dec-3-ene-4-carboxamide], the Ki was in the range of 500 to 2000 nM.

Turning to `CCN1CCC2(CC1)OC(=O)C(C)=C2C(=O)NCCc1cccc(C(F)(F)F)c1` [Compound 99, 8-ethyl-3-methyl-2-oxo-N-{2-[3-(trifluoromethyl)phenyl]ethyl}-1-oxa-8-azaspiro[4.5]dec-3-ene-4-carboxamide], the Ki was in the range of 500 to 2000 nM.

On to `CCN1CCC2(CC1)OC(=O)C(C)=C2C(=O)NCCc1ccc(C(F)(F)F)cc1` [Compound 100, 8-ethyl-3-methyl-2-oxo-N-{2-[4-(trifluoromethyl)phenyl]ethyl}-1-oxa-8-azaspiro[4.5]dec-3-ene-4-carboxamide], for which the Ki was in the range of 500 to 2000 nM.

With `CC1=C(C(=O)N2CCN(c3cccc(C(F)(F)F)c3)CC2)C2(CCN(C(C)C)CC2)OC1=O` [Compound 101, 8-isopropyl-3-methyl-4-({4-[3-(trifluoromethyl)phenyl]piperazin-1-yl}carbonyl)-1-oxa-8-azaspiro[4.5]dec-3-en-2-one], the Ki is < 50 nM.

As to `CC1=C(C(=O)N2CCN(c3cccc(C(F)(F)F)c3)CC2)C2(CCN(CCc3ccccc3)CC2)OC1=O` [Compound 102, 3-methyl-8-(2-phenylethyl)-4-({4-[3-(trifluoromethyl)phenyl]piperazin-1-yl}carbonyl)-1-oxa-8-azaspiro[4.5]dec-3-en-2-one], the inhibition constant (Ki) is < 50 nM.

Turning to `CC1=C(C(=O)N2CCN(c3cccc(C(F)(F)F)c3)CC2)C2(CCN(CC(C)C)CC2)OC1=O` [Compound 103, 8-isobutyl-3-methyl-4-({4-[3-(trifluoromethyl)phenyl]piperazin-1-yl}carbonyl)-1-oxa-8-azaspiro[4.5]dec-3-en-2-one], the Ki was < 50 nM.

Take `CC1=C(C(=O)N2CCN(c3cccc(C(F)(F)F)c3)CC2)C2(CCN(C(C)Cc3ccccc3)CC2)OC1=O` (stereo not shown) [Compound 104, 3-methyl-8-(1-methyl-2-phenylethyl)-4-({4-[3-(trifluoromethyl)phenyl]piperazin-1-yl}carbonyl)-1-oxa-8-azaspiro[4.5]dec-3-en-2-one]: the inhibition constant Ki was < 50 nM.

As for `CC1=C(C(=O)N2CCN(c3cccc(C(F)(F)F)c3)CC2)C2(CCN(CC(C)c3ccccc3)CC2)OC1=O` (stereo not shown) [Compound 105, 3-methyl-8-(2-phenylpropyl)-4-({4-[3-(trifluoromethyl)phenyl]piperazin-1-yl}carbonyl)-1-oxa-8-azaspiro[4.5]dec-3-en-2-one], the Ki was < 50 nM.

Regarding `CC1=C(C(=O)N2CCN(c3cccc(C(F)(F)F)c3)CC2)C2(CCN(C3CCCCC3)CC2)OC1=O` [Compound 106, 8-cyclohexyl-3-methyl-4-({4-[3-(trifluoromethyl)phenyl]piperazin-1-yl}carbonyl)-1-oxa-8-azaspiro[4.5]dec-3-en-2-one], the inhibitory constant (Ki) is < 50 nM.

Consider `CC1=C(C(=O)N2CCN(c3cccc(C(F)(F)F)c3)CC2)C2(CCN(Cc3cc4ccccc4[nH]3)CC2)OC1=O` [Compound 107, 8-(1H-indol-2-ylmethyl)-3-methyl-4-({4-[3-(trifluoromethyl)phenyl]piperazin-1-yl}carbonyl)-1-oxa-8-azaspiro[4.5]dec-3-en-2-one], for which the Ki was in the range of 500 to 2000 nM.

As for `CC1=C(C(=O)N2CCN(c3cccc(C(F)(F)F)c3)CC2)C2(CCN(CC(=O)c3ccccc3)CC2)OC1=O` [Compound 108, 3-methyl-8-(2-oxo-2-phenylethyl)-4-({4-[3-(trifluoromethyl)phenyl]piperazin-1-yl}carbonyl)-1-oxa-8-azaspiro[4.5]dec-3-en-2-one], the Ki was 100 to 500 nM.
